{
  "source": "the supplement of paper PMC11208160",
  "data": [
    {"experiment": "recombinant UMI read abundance after kanamycin selection (control-corrected) (log10(CPM+1)); higher = more efficient recombination; extreme values may be limits of the assay; sequences stand for … in AGTGCAGAGAAAATCGGCCAGTTTTCTCTGCCTGCAGTCCGCATGCCGTGGGACCCCTTGGGTTCTAACCTGTTGCCTAGATTTATGCAGCGGACTGCCTTTCTCCCAAAGTGATAAACCGG…AGGTTGGTTTCACT; site = the 11-nt donor", "method_in_brief": "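Values, expressed as log10(CPM+1), derive from recombinant UMI counts converted to CPM, averaged across replicates and scaled by control-derived factors. Plating was with IPTG (0.07 mM) plus kanamycin or unselected, two replicates each. The screen pooled donor and donor-binding-loop pairs for the IS621 bridge recombinase in Escherichia coli.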", "values": [
      {"sequence": "AGTCTTTCATGGACCGGTTTTCCCGGTAATCCGTATTTGAC (site AGACTTTCTGT)", "recombinant UMI read abundance (log10)": 0},
      {"sequence": "GAGCTACCATGGACCGGTTTTCCCGGTAATCCGTATTTGGC (site GAGCTACCTGC)", "recombinant UMI read abundance (log10)": 0},
      {"sequence": "GCGAAACCATGGACCGGTTTTCCCGGTAATCCGTATTTGCT (site GCGAAAGCTAG)", "recombinant UMI read abundance (log10)": 0},
      {"sequence": "GGGATGACATGGACCGGTTTTCCCGGTAATCCGTATTTGAG (site GGGATGACTCT)", "recombinant UMI read abundance (log10)": 1.86},
      {"sequence": "CCTGGCACATGGACCGGTTTTCCCGGTAATCCGTATTTGAA (site CCTGGCACTTT)", "recombinant UMI read abundance (log10)": 0.0111},
      {"sequence": "TATCTAGCATGGACCGGTTTTCCCGGTAATCCGTATTTGAA (site TAACTAGCTTT)", "recombinant UMI read abundance (log10)": 0.0105},
      {"sequence": "CTACTAACATGGACCGGTTTTCCCGGTAATCCGTATTTGGA (site CCACTAACTTC)", "recombinant UMI read abundance (log10)": 0.567},
      {"sequence": "AGGACTACATGGACCGGTTTTCCCGGTAATCCGTATTTGAC (site AGGACTACTGG)", "recombinant UMI read abundance (log10)": 0},
      {"sequence": "ACAGTATCATGGACCGGTTTTCCCGGTAATCCGTATTTGCA (site ACAGTGTCTTG)", "recombinant UMI read abundance (log10)": 2.4},
      {"sequence": "TGTGCCCCATGGACCGGTTTTCCCGGTAATCCGTATTTGTA (site TGTTCCCCTTA)", "recombinant UMI read abundance (log10)": 0.0156},
      {"sequence": "GCAGAGACATGGACCGGTTTTCCCGGTAATCCGTATTTGCG (site CCAGAGACTCG)", "recombinant UMI read abundance (log10)": 2.58},
      {"sequence": "CAGGAGTCATGGACCGGTTTTCCCGGTAATCCGTATTTGCC (site CAGGAGTCTGG)", "recombinant UMI read abundance (log10)": 3.4},
      {"sequence": "CAATTCACATGGACCGGTTTTCCCGGTAATCCGTATTTGCT (site CAATTCACTAG)", "recombinant UMI read abundance (log10)": 1.32},
      {"sequence": "ACTAGGGCATGGACCGGTTTTCCCGGTAATCCGTATTTGAG (site ACTAGGGCTCT)", "recombinant UMI read abundance (log10)": 1.52},
      {"sequence": "ACACATCCATGGACCGGTTTTCCCGGTAATCCGTATTTGAT (site ACACATCCTAT)", "recombinant UMI read abundance (log10)": 1.34},
      {"sequence": "CCAGGCGCATGGACCGGTTTTCCCGGTAATCCGTATTTGAT (site CCAGGTGCTAT)", "recombinant UMI read abundance (log10)": 0.707},
      {"sequence": "AGTTCCCCATGGACCGGTTTTCCCGGTAATCCGTATTTGTA (site CGTTCCCCTTA)", "recombinant UMI read abundance (log10)": 0.025},
      {"sequence": "TCCAGTTCATGGACCGGTTTTCCCGGTAATCCGTATTTGCC (site TCCAGTTCTGG)", "recombinant UMI read abundance (log10)": 0},
      {"sequence": "ACGAAGTCATGGACCGGTTTTCCCGGTAATCCGTATTTGCA (site ACGAAGTCTTG)", "recombinant UMI read abundance (log10)": 3.09},
      {"sequence": "CTCCCGACATGGACCGGTTTTCCCGGTAATCCGTATTTGAG (site CTCCCAACTCT)", "recombinant UMI read abundance (log10)": 0.849},
      {"sequence": "CACGGTCCATGGACCGGTTTTCCCGGTAATCCGTATTTGCA (site CACGGTCCTTG)", "recombinant UMI read abundance (log10)": 1.74},
      {"sequence": "TTTCTCTCATGGACCGGTTTTCCCGGTAATCCGTATTTGTA (site TTTCTCTCTTA)", "recombinant UMI read abundance (log10)": 0.571},
      {"sequence": "TATCCTCCATGGACCGGTTTTCCCGGTAATCCGTATTTGTT (site TATCCTCCTAA)", "recombinant UMI read abundance (log10)": 0.0195},
      {"sequence": "GCGAAGTCATGGACCGGTTTTCCCGGTAATCCGTATTTGGG (site GCGAAGGCTCC)", "recombinant UMI read abundance (log10)": 0.019},
      {"sequence": "ATGAAGGCATGGACCGGTTTTCCCGGTAATCCGTATTTGCA (site ATGAAGGCTTG)", "recombinant UMI read abundance (log10)": 2.91},
      {"sequence": "CCGTTTACATGGACCGGTTTTCCCGGTAATCCGTATTTGCT (site CCGTATACTAG)", "recombinant UMI read abundance (log10)": 0},
      {"sequence": "GCTCCTGCATGGACCGGTTTTCCCGGTAATCCGTATTTGCC (site GCTACTGCTGG)", "recombinant UMI read abundance (log10)": 0.902},
      {"sequence": "AAAATATCATGGACCGGTTTTCCCGGTAATCCGTATTTGCA (site ACAGTATCTTG)", "recombinant UMI read abundance (log10)": 1.88},
      {"sequence": "GATTCGACATGGACCGGTTTTCCCGGTAATCCGTATTTGAC (site GATTAGACTGT)", "recombinant UMI read abundance (log10)": 0},
      {"sequence": "ACAGTATCATGGACCGGTTTTCCCGGTAATCCGTATTTGCA (site ACAGTAGCTCG)", "recombinant UMI read abundance (log10)": 0.00206},
      {"sequence": "TGAGAGACATGGACCGGTTTTCCCGGTAATCCGTATTTGCG (site TGAGAGACTCG)", "recombinant UMI read abundance (log10)": 2.22},
      {"sequence": "ATCTGTCCATGGACCGGTTTTCCCGGTAATCCGTATTTGAT (site ATCTGTCCTAT)", "recombinant UMI read abundance (log10)": 0.0326}
    ]}
  ]
}
